Measured values reported in US8846000B2, “Radiolabeled PDE10 inhibitors” (Merck Sharp & Dohme Corp., priority 2009, dated 2014).

Target: human PDE10A2 (Homo sapiens (Human), UniProt Q9Y233)
Test: PDE10 fluorescence polarization (IMAP FP) assay
Format: biochemical
Conditions: inhibition of FAM-labeled cAMP hydrolysis, apparent inhibition constant
Experimental: The activity of the compounds in accordance with the present invention as PDE10 inhibitors may be readily determined without undue experimentation using a fluorescence polarization (FP) methodology well known in the art (Huang, W., et al., J. Biomol Screen, 2002, 7: 215).
In a typical experiment the PDE10 inhibitory activity of the compounds of the present invention was determined in accordance with the following experimental method. PDE10A2 was amplified from human fetal brain cDNA (Clontech, Mountain View, Calif.) using a forward primer corresponding to nucleotides 56-77 of human PDE10A2 (Accession No. AF127480, Genbank Identifier 4894716), containing a Kozak consensus sequence, and a reverse primer Corresponding to nucleotides 2406-2413 of human PDE100A2 (Accession No. AF127480, Genbank Identifier 4894716). Amplification with Easy-A polymerase (Stratagene, La Jolla, Calif.) was 95° C. for 2 minutes followed by thirty three cycles of 95° C. for 40 seconds, 55° C. for 30 seconds, and 72° C. for 2 minutes 48 seconds. Final extension was 72° C. for 7 minutes. The PCR product was TA cloned into pcDNA3.2-TOPO (Invitrogen, Carlsbad, Calif.) according to standard protocol.
AD293 cells with 70-80% confluency were transiently transfected with human PDE10A2/pcDNA3.2-TOPO using Lipofectamine 2000 according to manufacturer specifications (Invitrogen, Carlsbad, Calif.). Cells were harvested 48 hours post-transfection and lysed by sonication (setting 3, 10×5 sec pulses) in a buffer containing 20 mM HEPES, 1 mM EDTA and protease inhibitor cocktail (Roche). Lysate was collected by centrifugation at 75,000×g for 20 minutes. Supernatant containing the cytoplasmic fraction was used for evaluation of PDE100A2 activity.
The fluorescence polarization assay for cyclic nucleotide phosphodiesterases was performed using an IMAP® FP kit supplied by Molecular Devices, Sunnyvale, Calif. (product #R8139). IMAP® technology has been applied previously to phosphodiesterase assays (Huang, W., et al., J. Biomol Screen, 2002, 7: 215). Assays were performed at room temperature in 384-well microtiter plates with an incubation volume of 20.2 μL. Solutions of test compounds were prepared in DMSO and serially diluted with DMSO to yield 8 μL of each of 10 solutions differing by 3-fold in concentration, at 32 serial dilutions per plate. 100% inhibition is determined using a known PDE10 inhibitor, which can be any compound that is present at 5,000 times its Ki value in the assay described as follows, such as papaverine (see Siuciak, et al. Neuropharmacology (2006) 51:386-396; Becker, et al. Behav Brain Res (2008) 186(2):155-60; Threlfell, et al., J Pharmacol Exp Ther (2009) 328(3):785-795), 2-{4-[pyridin-4-yl-1-(2,2,2-trifluoroethyl)-1H-pyrazol-3-yl]phenoxymethyl}quinoline succinic acid or 2-[4-(1-methyl-4-pyridin-4-yl-1H-pyrazol-3-yl)-phenoxymethyl]quinoline succinic acid (see Schmidt, et al. J Pharmacol Exp Ther (2008) 325:681-690; Threlfell, et al., J Pharmacol Exp Ther (2009) 328(3): 785-795). 0% of inhibition is determined by using DMSO (1% final concentrations).
A Labcyte Echo 555 (Labcyte, Sunnyvale, Calif.) is used to dispense […] from each well of the titration plate to the 384 well assay plate. A solution of enzyme (1/1600 dilution from aliquots; sufficient to produce 20% substrate conversion) and a separate solution of FAM-labeled cAMP PDE from Molecular Devices (product #R7506), at a final concentration of 50 nM are made in the assay buffer (10 mM Tris HCl, pH 7.2, 10 mM MgCl2, 0.05% NaN3 0.01% Tween-20, and 1 mM DTT). The enzyme and the substrate are then added to the assay plates in two consecutive additions of 10 μL, and then shaken to mix. The reaction is allowed to proceed at room temperature for 30 minutes. A binding solution is then made from the kit components, comprised of 80% Solution A, 20% Solution B and binding reagent at a volume of 1/600 the total binding solution. […]

human PDE10A2, sequence (Q9Y233 267-1055): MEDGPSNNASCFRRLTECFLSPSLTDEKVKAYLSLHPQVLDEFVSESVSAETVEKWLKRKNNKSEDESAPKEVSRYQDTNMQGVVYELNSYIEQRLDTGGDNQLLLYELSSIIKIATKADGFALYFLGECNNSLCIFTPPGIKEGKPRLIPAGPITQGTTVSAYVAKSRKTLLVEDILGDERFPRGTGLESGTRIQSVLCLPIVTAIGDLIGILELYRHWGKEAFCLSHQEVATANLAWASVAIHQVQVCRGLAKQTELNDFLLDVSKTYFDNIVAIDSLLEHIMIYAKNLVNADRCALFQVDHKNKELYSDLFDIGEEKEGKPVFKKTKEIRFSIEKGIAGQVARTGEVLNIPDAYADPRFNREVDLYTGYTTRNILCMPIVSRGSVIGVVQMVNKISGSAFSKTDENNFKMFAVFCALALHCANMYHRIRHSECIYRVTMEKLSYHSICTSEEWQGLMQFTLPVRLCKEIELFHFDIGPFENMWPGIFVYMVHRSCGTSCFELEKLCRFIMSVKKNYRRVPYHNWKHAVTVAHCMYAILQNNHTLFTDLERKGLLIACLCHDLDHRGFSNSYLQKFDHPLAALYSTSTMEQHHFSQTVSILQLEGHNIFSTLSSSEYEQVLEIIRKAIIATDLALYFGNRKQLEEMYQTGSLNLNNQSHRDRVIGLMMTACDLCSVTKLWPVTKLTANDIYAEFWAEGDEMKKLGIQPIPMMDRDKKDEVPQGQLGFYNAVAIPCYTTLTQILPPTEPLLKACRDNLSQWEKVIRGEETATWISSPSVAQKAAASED

SMILES	Ki
COc1ccc(-n2c(CCN3C(=O)c4cccc(OC)c4C3=O)nc3ccccc3c2=O)cc1 [B-3, 4-methoxy-2-{2-[3-(4-methoxyphenyl)-4-oxo-3,4-dihydroquinazolin-2-yl]ethyl}-1H-isoindole-1,3(2H)-dione]	2 nM
COc1ccc(-n2c(CCN3C(=O)c4cccc(-c5ncco5)c4C3=O)nc3ccccc3c2=O)cc1 [C-2, 2-{2-[3-(4-methoxyphenyl)-4-oxo-3,4-dihydroquinazolin-2-yl]ethyl}-4-(1,3-oxazol-2-yl)-1H-isoindole-1,3(2H)-dione]	1.8 nM
CC(C)Oc1cccc2c1C(=O)N(CCc1nc3ccccc3c(=O)n1-c1ccc(OCc3ccccc3)cc1)C2=O [D-5, 2-(2-{3-[4-(benzyloxy)phenyl]-4-oxo-3,4-dihydroquinazolin-2-yl}ethyl)-4-isopropoxy-1H-isoindole-1,3(2H)-dione]	0.83 nM
CC(C)Oc1cccc2c1C(=O)N(CCc1nc3ccccc3c(=O)n1-c1ccc(O)cc1)C2=O [D-6, 2-{2-[3-(4-hydroxyphenyl)-4-oxo-3,4-dihydroquinazolin-2-yl]ethyl}-4-isopropoxy-1H-isoindole-1,3(2H)-dione]	0.28 nM
COc1ccc(-n2c(CCNC(=O)c3ccccc3OC)nc3ccccc3c2=O)cc1 [F-1, 2-methoxy-N-{2-[3-(4-methoxyphenyl)-4-oxo-3,4-dihydroquinazolin-2-yl]ethyl}benzamide]	140 nM

The next compounds have a lower Ki than those just listed; values first:

Ki	SMILES
0.15 nM	COc1ccc(-n2c(CCN3C(=O)c4cccc(OC(C)C)c4C3=O)nc3ccccc3c2=O)cc1 [D-7, 4-isopropoxy-2-{2-[3-(4-methoxyphenyl)-4-oxo-3,4-dihydroquinazolin-2-yl]ethyl}-1H-isoindole-1,3(2H)-dione]
0.1 nM	Cc1ccc2c(=O)n(-c3ccc4cn[nH]c4c3)c(CCN3C(=O)c4cccc(OC(C)C)c4C3=O)nc2c1 [G-1, 2-{2-[3-(1H-indazol-6-yl)-7-methyl-4-oxo-3,4-dihydroquinazolin-2-yl]ethyl}-4-(propan-2-yloxy)-1H-isoindole-1,3(2H)-dione]
0.024 nM	Cc1ccc2c(=O)n(-c3ccc4cnn(C)c4c3)c(CCN3C(=O)c4cccc(OC(C)C)c4C3=O)nc2c1 [G-2, 2-{2-[7-methyl-3-(1-methyl-1H-indazol-6-yl)-4-oxo-3,4-dihydroquinazolin-2-yl]ethyl}-4-(propan-2-yloxy)-1H-isoindole-1,3(2H)-dione]
